For experiment [1], the target named is T1, N-terminal His-tagged TYK2 pseudokinase domain (Homo sapiens, UniProt P29597).
T1 construct: the N-terminal His-tagged TYK2 pseudokinase domain; His (N); purchased Pharmaron
Put plainly: TYK2 JH2 domain SPA binding assay. The conditions noted are these: displacement of H3 probe (20 nM), 30 min room temperature; class symbols. The protocol:
TYK2 JH2 Domain Binding Assay
After incubating at room temperature for 30 min, the inhibition was calculated by the displacement of [3H] 3 binding as determined by scintillation counting. Dose-response curves were generated to determine the concentration required to inhibit H3 probe binding by […] (IC50).

Experiment [2] has as its system IL-23 induced STAT3 in HEK-Blue™ IL-23 cells. Put plainly: IL-23 induced STAT3 QUANTI-Blue reporter assay in HEK-Blue IL-23 cells. It counts as cell-based. The conditions noted are these: HEK-Blue IL-23, HEK-Blue IL-23 cells, IL-23 0.1 ng/mL, SEAP levels; class symbols; read-out: IL23 reporter assay (IC50 nM). The gist of the method:
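HEK-Blue IL-23 cells, 5000/well, preincubated with compound 1 h at 37 °C, then stimulated overnight with IL-23 at 0.1 ng/mL final. Supernatant mixed with QUANTI-Blue for 2 h at 37 °C and secreted SEAP read out.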
Background: Reporter assays use an easily measured gene product as a stand-in for the process of interest.

Structures are written as SMILES. A value given as a limit tells only on which side of the number the result lay.

The record followed here is patent publication US20240335443A1, “IMIDAZOLOPYRIDAZINE OR PYRAZOLOPYRIMIDINE COMPOUNDS AND COMPOSITIONS” (Anrui Biomedical Technology (Guangzhou) Co., Ltd., priority 2021, published 2024).

A word on the IC50: it is the concentration needed to halve the response being measured.

T1 sequence (P29597 589-875 limits assumed): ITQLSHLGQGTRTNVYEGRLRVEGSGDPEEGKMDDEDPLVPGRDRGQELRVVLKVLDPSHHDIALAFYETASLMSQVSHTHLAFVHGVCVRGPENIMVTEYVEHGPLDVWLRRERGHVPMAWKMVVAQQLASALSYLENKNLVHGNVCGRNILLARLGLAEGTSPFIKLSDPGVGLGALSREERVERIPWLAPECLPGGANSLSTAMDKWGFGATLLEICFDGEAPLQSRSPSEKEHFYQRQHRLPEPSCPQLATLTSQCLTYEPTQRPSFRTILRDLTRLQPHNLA

Regarding `CNc1cc(Nc2cccn(-c3ccccc3F)c2=O)nn2c(C(=O)N[C@H]3C[C@@H]4CCO[C@@H]43)cnc12` [Compound 45], the IC50 in experiment [1] was 100 to 1000 nM; in experiment [2], at least 1000 nM.
The corresponding values for `CNc1cc(Nc2cccn(-c3ccccc3)c2=O)nn2c(C(=O)N[C@@H]3C[C@H]4CCO[C@H]43)cnc12` [Compound 46] are 10 to 100 nM and below 10 nM.
For `[2H]C([2H])([2H])Nc1cc(Nc2cccn(-c3ccn(C)n3)c2=O)nn2c(C(=O)N[C@@H]3C[C@H]4CCO[C@H]43)cnc12` [Compound 52], in that order: below 10 nM and below 10 nM.
In the case of `[2H]C([2H])([2H])Nc1cc(Nc2cccn(-c3ccn(C([2H])([2H])[2H])n3)c2=O)nn2c(C(=O)N[C@@H]3C[C@H]4CCO[C@H]43)cnc12` [Compound 53], the IC50 in experiment [1] was 10 to 100 nM; in experiment [2], below 10 nM.
For `CNc1cc(Nc2cccn(-c3nn(C)cc3F)c2=O)nn2c(C(=O)N[C@@H]3C[C@H]4CCO[C@H]43)cnc12` [Compound 54], in that order: 10 to 100 nM and below 10 nM.
On to `CNc1cc(Nc2cccn(-c3cc(C)n(C)n3)c2=O)nn2c(C(=O)N[C@@H]3C[C@H]4CCO[C@H]43)cnc12` [Compound 55], for which the IC50 in experiment [1] and in experiment [2] was 10 to 100 nM in each case.
As for `[2H]C([2H])([2H])Nc1cc(Nc2cccn(-c3ccn(C)n3)c2=O)nn2c(C(=O)N[C@@H]3C[C@@H]3F)cnc12` [Compound 57], the IC50 in experiment [1] and in experiment [2] was 10 to 100 nM in each case.
As to `[2H]C([2H])([2H])n1ccc(-n2cccc(Nc3cc(NC)c4ncc(C(=O)N[C@@H]5C[C@@H]5F)n4n3)c2=O)n1` [Compound 58], the IC50 in experiment [1] and in experiment [2] was 10 to 100 nM each time.
As for `[2H]C([2H])([2H])Nc1cc(Nc2cccn(-c3ccn(C([2H])([2H])[2H])n3)c2=O)nn2c(C(=O)N[C@@H]3C[C@@H]3F)cnc12` [Compound 59], the IC50 in experiment [1] is 10 to 100 nM; in experiment [2], below 10 nM.
The corresponding values for `CNc1cc(Nc2cccn([C@H]3CC[C@H](OC)CC3)c2=O)nn2c(C(=O)N[C@@H]3C[C@H]4CCO[C@H]43)cnc12` [Compound 63] are below 10 nM and below 10 nM.
The corresponding values for `[2H]C([2H])([2H])Nc1cc(Nc2cccn([C@H]3CC[C@@H](OC([2H])([2H])[2H])CC3)c2=O)nn2c(C(=O)N[C@@H]3C[C@H]4CCO[C@H]43)cnc12` [Compound 64] are 10 to 100 nM and 10 to 100 nM.
The corresponding values for `CNc1cc(Nc2cccn([C@H]3CCCOC3)c2=O)nn2c(C(=O)N[C@@H]3C[C@H]4CCO[C@H]43)cnc12` [Compound 65] are 10 to 100 nM and below 10 nM.
Consider `CNc1cc(Nc2cccn(C3CCOCC3)c2=O)nn2c(C(=O)N[C@@H]3C[C@H]4CCO[C@H]43)cnc12` [Compound 66], for which the IC50 was 10 to 100 nM in experiment [1] and below 10 nM in experiment [2].
For `[2H]C([2H])([2H])Nc1cc(Nc2cccn([C@H]3CC[C@H](OC([2H])([2H])[2H])CC3)c2=O)nn2c(C(=O)N[C@@H]3C[C@@H]3F)cnc12` [Compound 69], in that order: 10 to 100 nM and below 10 nM.
For `CNc1cc(Nc2cccn([C@H]3CC[C@@H](OC)CC3)c2=O)nn2c(C(=O)N[C@@H]3C[C@@H]3F)cnc12` [Compound 70], in that order: 10 to 100 nM and 10 to 100 nM.
The corresponding values for `[2H]C([2H])([2H])Nc1cc(Nc2cccn([C@H]3CC[C@@H](OC([2H])([2H])[2H])CC3)c2=O)nn2c(C(=O)N[C@@H]3C[C@@H]3F)cnc12` [Compound 72] are 10 to 100 nM and below 10 nM.
Regarding `CNc1cc(Nc2cccn(C3CCC4(CC3)COC4)c2=O)nn2c(C(=O)N[C@@H]3C[C@@H]3F)cnc12` [Compound 73], the IC50 in experiment [1] is 10 to 100 nM; in experiment [2], below 10 nM.
The corresponding values for `CNc1cc(Nc2cccn(C3C[C@H]4CC[C@@H](C3)O4)c2=O)nc2c(C(=O)N[C@@H]3C[C@H]4CCO[C@H]43)cnn12` (stereo partly shown) [Compound 76] are 10 to 100 nM and 10 to 100 nM.
The corresponding values for `[2H]C([2H])([2H])Nc1cc(Nc2cccn(C3C[C@H]4CC[C@@H](C3)O4)c2=O)nn2c(C(=O)N[C@@H]3C[C@@H]3F)cnc12` (stereo partly shown) [Compound 80] are 10 to 100 nM and 10 to 100 nM.
Take `CNc1cc(Nc2cccn(C3C[C@H]4CC[C@@H](C3)O4)c2=O)nc2c(C(=O)N[C@@H]3C[C@@H]3F)cnn12` (stereo partly shown) [Compound 81]: the IC50 in experiment [1] and in experiment [2] was 10 to 100 nM in each case.
For the molecule `CNc1cc(Nc2cccn([C@H]3C[C@H](OC)C3)c2=O)nn2c(C(=O)N[C@@H]3C[C@H]4CCO[C@H]43)cnc12` [Compound 82], the IC50 in experiment [1] is 10 to 100 nM; in experiment [2], below 10 nM.
For `[2H]C([2H])([2H])O[C@H]1C[C@H](n2cccc(Nc3cc(NC)c4ncc(C(=O)N[C@@H]5C[C@H]6CCO[C@H]65)n4n3)c2=O)C1` [Compound 83], in that order: 10 to 100 nM and 10 to 100 nM.
For `[2H]C([2H])([2H])Nc1cc(Nc2cccn([C@H]3C[C@H](OC([2H])([2H])[2H])C3)c2=O)nn2c(C(=O)N[C@@H]3C[C@H]4CCO[C@H]43)cnc12` [Compound 84], in that order: 10 to 100 nM and 10 to 100 nM.
Regarding `CNc1cc(Nc2cccn([C@H]3C[C@@H](OC)C3)c2=O)nn2c(C(=O)N[C@@H]3C[C@H]4CCO[C@H]43)cnc12` [Compound 85], the concentration for half-maximal inhibition (IC50) in experiment [1] and in experiment [2] was 10 to 100 nM each time.
As to `[2H]C([2H])([2H])O[C@H]1C[C@@H](n2cccc(Nc3cc(NC)c4ncc(C(=O)N[C@@H]5C[C@H]6CCO[C@H]65)n4n3)c2=O)C1` [Compound 86], the IC50 in experiment [1] and in experiment [2] was 10 to 100 nM throughout.
`[2H]C([2H])([2H])Nc1cc(Nc2cccn([C@H]3C[C@@H](OC([2H])([2H])[2H])C3)c2=O)nn2c(C(=O)N[C@@H]3C[C@H]4CCO[C@H]43)cnc12` [Compound 87]: the half-maximal inhibitory concentration (IC50) in experiment [1] and in experiment [2] was 10 to 100 nM each time.
As for `[2H]C([2H])([2H])Nc1cc(Nc2cccn([C@H]3C[C@H](OC(F)(F)F)C3)c2=O)nn2c(C(=O)N[C@@H]3C[C@H]4CCO[C@H]43)cnc12` [Compound 89], the IC50 in experiment [1] and in experiment [2] was 10 to 100 nM in each case.
On to `CNc1cc(Nc2cccn([C@H]3C[C@H](F)C3)c2=O)nn2c(C(=O)N[C@@H]3C[C@H]4CCO[C@H]43)cnc12` [Compound 90], for which the IC50 in experiment [1] and in experiment [2] was 10 to 100 nM each time.
As to `CNc1cc(Nc2cccn([C@H]3C[C@H](OC)C3)c2=O)nn2c(C(=O)N[C@@H]3C[C@@H]3F)cnc12` [Compound 99], the IC50 in experiment [1] and in experiment [2] was 10 to 100 nM in each case.
Regarding `[2H]C([2H])([2H])Nc1cc(Nc2cccn([C@H]3C[C@H](OC([2H])([2H])[2H])C3)c2=O)nc2c(C(=O)N[C@@H]3C[C@@H]3F)cnn12` [Compound 100], the IC50 in experiment [1] and in experiment [2] was 10 to 100 nM each time.
On to `[2H]C([2H])([2H])Nc1cc(Nc2cccn([C@@H]3C[C@H]4CCO[C@H]43)c2=O)nn2c(C(=O)N[C@@H]3C[C@@H]3F)cnc12` [Compound 106], for which the IC50 in experiment [1] and in experiment [2] was below 10 nM throughout.
For `CNc1cc(Nc2cccn(CC3CCCO3)c2=O)nn2c(C(=O)N[C@@H]3C[C@@H]3F)cnc12` (stereo partly shown) [Compound 107], the IC50 in experiment [1] and in experiment [2] was 10 to 100 nM in each case.
